Data published in US10336788B2, “Inhibition of cardiac fibrosis in myocardial infarction” (Moerae Matrix, Inc., priority 2014, dated 2019).
No end group written: not given here.

How the values were obtained:
[1] = tested on: primary cardiac fibroblasts; test: Caspase 3/7 activity in primary cardiac fibroblasts challenged with 1% hypoxia; assay type: cell-based, rat; conditions: 100 μM, 16 and 32 hours of hypoxia
Protocol: H9C2 is a myoblast cell line derived from rat myocardium obtained from ATCC® (CRL-1446, ATCC, Manassas, Va.) and cultured according to the recommended protocols. Briefly, cells were maintained at 37° C. with 5% CO2 in DMEM supplemented with 10% fetal bovine serum and antibiotics (100 U/ml penicillin, […] streptomycin) and split at a ratio of 1:4 using 0.05% trypsin every 36 hours. […]
Cells were rinsed in PMS and grown in DMEM (cat. #11966-025, Gibco) for 2 hours prior to initiating hypoxia (simulated ischemia). […] Three different time points were adopted for each of the three cell lines according to the severity of cell death under hypoxia determined by LDH release: for H9C2 cell line: 8 hr; 16 hr; 24 hr; for HL-1 cell line: 4 hr; 8 hr; 12 hr; for cardiac fibroblast cell line: 16 hr; 32 hr; 48 hr.
Cell death was first determined using an LDH release assay (cat. #630117, Clontech), according to the manufacturer's instructions. […] Caspase 3/7 activity was next determined using a commercial Caspase 3/7 activity kit (Cat. #G8091, Promega, Madison, Wis. 53711) in a 384 well plate (Cat. #781903, Greiner bio-one) according to the manufacturer's instructions. […] The resulting cell lysates (25 μl, with 0.6 ug total protein) and Caspase-Glo 3/7 Reagent were added to each well in a 1:1 ratio and the luminescence was read (CLARIOstar, BMG LABTECH GmbH). […]

[2] = tested on: abdominal adhesions post-surgery; conditions: Ward et al. 2011; cited from earlier work
[3] = tested on: 40 non-kinase enzyme assays, including phosphatases and proteases; test: Panel of 40 non-kinase enzyme assays; assay type: biochemical; conditions: 100 μM; data not shown
MK2 = test: Immunoblot analysis of MK2 activity (HNRNPA0, total MK2, p-MK2) in H9C2 cells; assay type: cell-based, rat
Protocol: Cells were rinsed in PMS and grown in DMEM (cat. #11966-025, Gibco) for 2 hours prior to initiating hypoxia (simulated ischemia). Hypoxia was induced by placing cells in a hypoxia chamber ([…] 150i, Thermo Scientific) in a mixture of 5% CO2/95% N2 to attain a 1% oxygen concentration, according to the manufacturer's instruction. […] The MMI-0100 peptide was added to the cells at the start of the ischemia time. Cells were cultured in 12 well plates. At the time of performing the experiments, all cultures were approximately 70-90% confluent. Three different time points were adopted for each of the three cell lines according to the severity of cell death under hypoxia determined by LDH release: for H9C2 cell line: 8 hr; 16 hr; 24 hr; for HL-1 cell line: 4 hr; 8 hr; 12 hr; for cardiac fibroblast cell line: 16 hr; 32 hr; 48 hr.
The left over cell lysates from the Caspase activity assay were used for the Western blots. […] After blocking with recommended blocking reagents for 1 h at the room temperature, the membranes were incubated overnight at 4° C. with primary antibodies in TBS-T, and then incubated with secondary antibodies conjugated with HRP in TBS-T. HNRNPA0, MAPK2, and phospho-MAPK2 proteins were detected using anti-HNRNPA0 (cat. #HPA036569, 1:1000, Sigma-Aldrich), anti-MAPKAPK2 (cat. #SAB4300553, Sigma-Aldrich), and anti-phospho-MAPKAPK2 (cat. #SAB4300241, 1:1000, Sigma-Aldrich). […]

YARAAARQARAKALARQLGVAA [MMI-0100]
caspase 3/7 activity [1]: significantly enhanced | abdominal adhesions post-surgery [2]: inhibiting | interaction at non-kinase enzyme targets (significant if greater than 50% inhibition of activity) [3]: No significant interaction | HNRNPA0 expression (MK2; 100 μM, after induction by hypoxia): significantly inhibited | total MK2 and p-MK2 protein levels (MK2; 20 or 100 μM, 1% hypoxia): not changed
